Drawing on patent US7759373B2, “Large conductance calcium-activated K channel opener” (Mitsubishi Tanabe Pharma Corporation, priority 2001, dated 2010), this text covers melting point for 23 compounds.

Structures can show the parent of a compound that is named as a salt.

As usually defined, the melting point is the temperature of the solid-liquid transition. Turning to `CCCc1nc(-c2ccc(NC)cc2)[nH]c1-c1cccs1` (as salt: HCl) [Preparation example 3], the melting point is 175 to 180 °C.

For `CCOC(=O)Cc1nc(-c2ccc(OC)cc2)oc1-c1cccs1` [Preparation Example 154], the melting point was 105 to 107 °C.

Take `CCc1nc(-c2ccccc2Cl)[nH]c1-c1cccnc1` (as salt: HCl) [Preparation example 12]: the melting point was in the range of 221 to 223 °C.

`CCCc1nc(-c2ccc(F)cc2)[nH]c1-c1ccc(SC)cc1` (as salt: HCl) [Preparation example 89]: the melting point fell in the range of 174 to 176 °C.

`CCc1nc(-c2ccc(C)nc2)[nH]c1-c1ccccc1` (as salt: HCl) [Preparation example 28] registered a melting point of 248 to 251 °C.

Compound `CCc1nc(-c2ccc(F)cc2)[nH]c1-c1cncnc1` (as salt: HCl) [Preparation example 85] yielded a melting point of 287 to 289 °C.

Compound `C[S+]([O-])Cc1nc(-c2cccc(F)c2)[nH]c1-c1ccccc1` (centres unmarked) (as salt: HCl) [Preparation example 136] gave a melting point of 198 to 200 °C.

For `CCCc1nc(-c2ccc(C#N)cc2)[nH]c1-c1cccs1` (as salt: HCl) [Preparation example 8], the melting point fell in the range of 251 to 254 °C.

Regarding `O=C(O)Cc1nc(-c2ccc(Cl)cc2)oc1-c1cccs1` [Preparation Example 192], the melting point is 214 to 215 °C.

`N#Cc1ccc(-c2ncc(-c3ccccc3)[nH]2)cc1` (as salt: HCl) [Preparation example 42]: the melting point was > 300 °C.

For `CCOC(=O)c1nc(-c2ccc(F)cc2)[nH]c1CC` [Preparation example 69, ethyl 5-ethyl-2-(4-fluorophenyl)imidazol-4-carboxylate], the melting point fell in the range of 197 to 198 °C.

Turning to `O=C(O)Cc1nc(-c2ccc(F)cc2)oc1-c1ccccc1` (as salt: Na) [Preparation Example 153], the melting point is > 300 °C.

The compound `CCCc1nc(-c2ccncc2)[nH]c1-c1cccs1` (as salt: HCl) [Preparation example 6] had a melting point of 275 to 280 °C.

In the case of `O=CCNc1[nH]c(-c2ccc(F)cc2)nc1-c1ccccc1` [Preparation example 106, 5-formylmethylamino-2-(4-fluorophenyl)-4-phenyl-imidazole], the melting point lay within 256 to 258 °C.

For `CCc1nc(-c2ccc(F)cc2)[nH]c1Br` (as salt: hydrochloride) [Preparation example 77, 5-bromo-4-ethyl-2-(4-fluorophenyl)-imidazole], the melting point was 219 to 221 °C (dec.).

On to `Fc1cccc(-c2ncc(-c3ccccc3)[nH]2)c1` (as salt: HCl) [Preparation example 41], for which the melting point is 250 to 255 °C.

As to `CCCc1nc(-c2ccc(N(C)C)cc2)[nH]c1-c1cccs1` (as salt: HCl) [Preparation example 2], the melting point fell in the range of 170 to 172 °C.

`CCc1nc(-c2ccc(F)cc2)[nH]c1-c1cnccn1` (as salt: HCl) [Preparation example 49] returned a melting point of 241 to 243 °C.

In turn, `CCCc1nc(-c2cccc(F)c2)[nH]c1-c1ccccc1` (as salt: HCl) [Preparation example 30] registered a melting point of 192 to 193 °C.

Compound `CCOC(=O)Cc1nc(-c2cc3ccccc3s2)oc1-c1ccsc1` [Preparation Example 408] registered a melting point of 155 to 156.5 °C.

Compound `CCCc1nc(-c2ccc(F)cc2)[nH]c1-c1ccc([N+](=O)[O-])cc1` (as salt: HCl) [Preparation example 91] registered a melting point of 220 to 222 °C.

Compound `CSCc1nc(-c2cccc(F)c2)[nH]c1-c1ccccc1` (as salt: HCl) [Preparation example 131] gave a melting point of 218 to 220 °C.

Regarding `CCOC(=O)Cc1nc(-c2ccc(Cl)cc2)oc1-c1ccco1` [Preparation Example 191], the melting point was in the range of 109 to 111 °C.
